Measurements as given in patent US7687643B2, “Process for preparing 3,3-dimethylindolines” (Amgen Inc., priority 2001, dated 2010).

system: Human Umbilical Vein Endothelial cells (VEGF-stimulated); experiment: HUVEC proliferation assay, VEGF-stimulated; type: cell-based; conditions: VEGF 50 ng/mL, 72 h, CyQuant, read-out: inhibited VEGF-stimulated HUVEC proliferation at a level
Method: Human Umbilical Vein Endothelial cells are purchased from Clonetics, Inc., as cryopreserved cells harvested from a pool of donors. These cells, at passage 1, are thawed and expanded in EBM-2 complete medium, until passage 2 or 3. The cells are trypsinized, washed in DMEM+10% FBS+antibiotics, and spun at 1000 rpm for 10 min. Prior to centrifugation of the cells, a small amount is collected for a cell count. After centrifugation, the medium is discarded, and the cells are resuspended in the appropriate volume of DMEM+10% FBS+antibiotics to achieve a concentration of 3×10^5 cells/mL. Another cell count is performed to confirm the cell concentration. The cells are diluted to 3×10^4 cells/mL in DMEM+10% FBS+antibiotics, and 100 μL of cells are added to a 96-well plate. The cells are incubated at 37° C. for 22 h.
Prior to the completion of the incubation period, compound dilutions are prepared. Five-point, five-fold serial dilutions are prepared in DMSO, at concentrations 400-fold greater than the final concentrations desired. 2.5 μL of each compound dilution are diluted further in a total of 1 mL DMEM+10% FBS+antibiotics (400× dilution). Medium containing 0.25% DMSO is also prepared for the 0 μM compound sample. At the 22-hour timepoint, the medium is removed from the cells, and 100 μL of each compound dilution is added. The cells are incubated at 37° C. for 2-3 h.
During the compound pre-incubation period, the growth factors are diluted to the appropriate concentrations. Solutions of DMEM+10% FBS+antibiotics, containing either VEGF or bFGF at the following concentrations: 50, 10, 2, 0.4, 0.08, and 0 ng/mL are prepared. For the compound-treated cells, solutions of VEGF at 550 ng/mL or bFGF at 220 ng/mL for 50 ng/mL or 20 ng/mL final concentrations, respectively, are prepared since 10 μL of each will be added to the cells (110 μL final volume). At the appropriate time after adding the compounds, the growth factors are added. VEGF is added to one set of plates, while bFGF is added to another set of plates. For the growth factor control curves, the media on wells B4-G6 of plates 1 and 2 are replaced with media containing VEGF or bFGF at the varying concentrations (50-0 ng/mL). The cells are incubated at 37° C. for an additional 72 h.
At the completion of the 72 h incubation period, the medium is removed, and the cells are washed twice with PBS. After the second wash with PBS, the plates are tapped gently to remove excess PBS, and the cells are placed at −70° C. for at least 30 min. The cells are thawed and analyzed using the CyQuant fluorescent dye (Molecular Probes C-7026), following the manufacturer's recommendations. The plates are read on a Victor/Wallac 1420 workstation at 485 nm/530 nm (excitation/emission). Raw data are collected and analyzed using a 4-parameter fit equation in XLFit. IC50 values are then determined.

Structure (SMILES)	IC50 [µM]
CN1CCC(C(C)(C)c2ccc(NC(=O)c3cccnc3NCc3ccnc4ccccc34)cc2)CC1 [Example 1028, N-(4-(1-Methyl-1-(1-methyl-4-piperidinyl)ethyl)phenyl)-2-((4-quinolinylmethyl)amino)-3-pyridinecarboxamide]	< 0.05
CC1(C)CN(C(=O)c2cc[n+]([O-])cc2)c2cc(NC(=O)c3cccnc3NCc3ccncc3)ccc21 [Example 1100, N-[3,3-Dimethyl-1-(1-oxy-pyridine-4-carbonyl)-2,3-dihydro-1H-indol-6-yl]-2-[(pyridin-4-ylmethyl)-amino]-nicotinamide]	< 0.05
O=C(Nc1ccc(C(F)(F)F)c(OCCN2CCCC2)c1)c1cccnc1NCc1ccnc2ccccc12 [Example 1021, N-(3-((2-(1-pyrrolidinyl)ethyl)oxy)-4-(trifluoromethyl)phenyl)-2-((4-quinolinylmethyl)amino)-3-pyridinecarboxamide]	< 0.05
COc1cc(CNc2ncccc2C(=O)Nc2ccc3c(c2)CNCC3(C)C)ccn1 [Example 1177, N-(4,4-Dimethyl-1,2,3,4-tetrahydro-isoquinolin-7-yl)-2-[(2-methoxy-pyridin-4-ylmethyl)-amino]-nicotinamide]	< 0.05
CNc1nccc(CNc2ncccc2C(=O)Nc2cc(OC[C@@H]3CCCN3C)cc(C(F)(F)F)c2)n1 [Example 1144, 2-[(2-Methylamino-pyrimidin-4-ylmethyl)-amino]-N-[3-(1-methyl-pyrrolidin-2-ylmethoxy)-5-trifluoromethyl-phenyl]-nicotinamide]	< 0.05
CNc1nccc(CNc2ncccc2C(=O)Nc2ccc3c(c2)NCCC3(C)C)n1 [Example 1112, N-(4,4-Dimethyl-1,2,3,4-tetrahydro-quinolin-7-yl)-2-[(2-methylamino-pyrimidin-4-ylmethyl)-amino]-nicotinamide]	< 0.05
CNc1nccc(CNc2ncccc2C(=O)Nc2ccc(C(C)(C)C3CCN(C)CC3)cc2)n1 [Example 1043, 2-(((2-(methylamino)-4-pyrimidinyl)methyl)amino)-N-(4-(1-methyl-1-(1-methyl-4-piperidinyl)ethyl)phenyl)-3-pyridinecarboxamide]	< 0.05
O=C(Nc1ccc(C(F)(F)F)cc1)c1cccnc1NCc1ccncc1 [Example 165, {2-[(4-Pyridylmethyl)amino](3-pyridyl)}-N-[4-(trifluoromethyl)phenyl]carboxamide]	< 0.05
CC1(C)CN(C[C@@H]2CCCN2)c2cc(NC(=O)c3cccnc3NCc3ccncc3)ccc21 [Example 1176, N-(3,3-Dimethyl-1-pyrrolidin-(2S)-ylmethyl-2,3-dihydro-1H-indol-6-yl)-2-[(pyridin-4-ylmethyl)-amino]-nicotinamide]	< 0.05
CC1(C)CNc2cc(NC(=O)c3cccnc3NCc3ccnc4ccccc34)ccc21 [Example 1023, N-(3,3-Dimethyl-2,3-dihydro-1H-indol-6-yl)-2-((4-quinolinylmethyl)amino)-3-pyridinecarboxamide]	< 0.05
O=C(Nc1cccc(C(F)(F)F)c1)c1cccnc1NCc1ccc2c(c1)CCO2 [Example 827, {2-[(2,3-Dihydrobenzo[b]furan-5-ylmethyl)amino](3-pyridyl)}-N-[3-(trifluoromethyl)phenyl]carboxamide]	< 0.05
CNc1cc(CNc2ncccc2C(=O)Nc2cc(OC[C@@H]3CCCO3)cc(C(F)(F)F)c2)ccn1 [Example 1080, 2-(((2-(methylamino)-4-pyridinyl)methyl)amino)-N-(3-(((2S)-tetrahydro-2-furanylmethyl)oxy)-5-(trifluoromethyl)phenyl)-3-pyridinecarboxamide]	< 0.05
CC(=O)N1CC(C)(C)c2ccc(NC(=O)c3cccnc3Nc3ccc4c(c3)OCCO4)cc21 [Example 991, N-(1-Acetyl-3,3-dimethyl-2,3-dihydro-1H-indol-6-yl)-2-(2,3-dihydro-benzo[1,4]dioxin-6-ylamino)-nicotinamide]	< 0.05
CN1CCC(COc2cc(NC(=O)c3cccnc3NCc3ccncc3)ccc2C(F)(F)C(F)(F)F)CC1 [Example 954, N-[3-(1-Methyl-piperidin-4-ylmethoxy)-4-pentafluoroethyl-phenyl]-2-[(pyridin-4-ylmethyl)-amino]-nicotinamide]	< 0.05
CNc1nccc(CNc2ncccc2C(=O)Nc2cc(O[C@@H]3CCOC3)cc(C(F)(F)F)c2)n1 [Example 1084, 2-(((2-(methylamino)-4-pyrimidinyl)methyl)amino)-N-(3-((3R)-tetrahydro-3-furanyloxy)-5-(trifluoromethyl)phenyl)-3-pyridinecarboxamide]	< 0.05
CNc1cc(CNc2ncccc2C(=O)Nc2cc(O[C@@H]3CCOC3)cc(C(F)(F)F)c2)ccn1 [Example 1083, 2-(((2-(methylamino)-4-pyridinyl)methyl)amino)-N-(3-((3R)-tetrahydro-3-furanyloxy)-5-(trifluoromethyl)phenyl)-3-pyridinecarboxamide]	< 0.05
O=C(Nc1ccc2c(c1)N(CCN1CCCCC1)CC2)c1cccnc1NCc1ccncc1 [Example 130, N-[1-(2-Piperidylethyl)indolin-6-yl]{2-[(4-pyridylmethyl)amino](3-pyridyl)}carboxamide]	< 0.05
O=C(Nc1cc(OCC2CNC2)cc(C(F)(F)F)c1)c1cccnc1NCc1ccncc1 [Example 977, N-[3-(azetidin-3-ylmethoxy)-5-trifluoromethyl-phenyl]-2-[(pyridin-4-ylmethyl)-amino]-nicotinamide]	< 0.05
CC(C)(C)c1ccc(NC(=O)c2ccc(F)nc2NCc2ccncc2)cc1 [Example 154, N-[4-(tert-Butyl)phenyl]{6-fluoro-2-[(4-pyridylmethyl)amino](3-pyridyl)}carboxamide]	< 0.05
CC(C)(C)c1ccc(NC(=O)c2cccnc2NCc2ccnc(OCCN3CCOCC3)c2)cc1 [Example 905, N-(4-tert-Butyl-phenyl)-2-{[2-(2-morpholin-4-yl-ethoxy)-pyridin-4-ylmethyl]-amino}-nicotinamide]	< 0.05
CC1(C)CNc2cc(NC(=O)c3cccnc3NCc3ccncn3)ccc21 [Example 1029, N-(3,3-Dimethyl-2,3-dihydro-1H-indol-6-yl)-2-((4-pyrimidinylmethyl)amino)-3-pyridinecarboxamide]	< 0.05
CC1(C)CNc2cc(NC(=O)c3cccnc3NCc3ccncc3)ccc21 [Example 133, N-(3,3-Dimethylindolin-6-yl){2-[(4-pyridylmethyl)amino](3-pyridyl)}carboxamide]	< 0.05
O=C(Nc1cc(O)cc(C(F)(F)F)c1)c1cccnc1NCc1ccncc1 [Example 978, N-(3-Hydroxy-5-trifluoromethyl-phenyl)-2-[(pyridin-4-ylmethyl)-amino]-nicotinamide]	< 0.05
CNc1nccc(CNc2ncccc2C(=O)Nc2cc(NC(=O)O[C@H]3CCOC3)cc(C(F)(F)F)c2)n1 [Example 1089, (3S)-tetrahydro-3-furanyl 3-(((2-(((2-(methylamino)-4-pyrimidinyl)methyl)amino)-3-pyridinyl)carbonyl)amino)-5-(trifluoromethyl)phenylcarbamate]	< 0.05
CC1(C)CN(S(C)(=O)=O)c2cc(NC(=O)c3cccnc3NCc3ccncc3)ccc21 [Example 1068, N-(3,3-dimethyl-1-(methylsulfonyl)-2,3-dihydro-1H-indol-6-yl)-2-((4-pyridinylmethyl)amino)-3-pyridinecarboxamide]	< 0.05
CNc1cc(CNc2ncccc2C(=O)Nc2ccc3c(c2)CNCC3(C)C)ccn1 [Example 1130, N-(4,4-Dimethyl-1,2,3,4-tetrahydro-isoquinolin-7-yl)-2-[(2-methylamino-pyridin-4-ylmethyl)-amino]-nicotinamide]	< 0.05
CC1(C)CN(Cc2cc[n+]([O-])cc2)c2cc(NC(=O)c3cccnc3NCc3ccncc3)ccc21 [Example 1099, N-[3,3-Dimethyl-1-(1-oxy-pyridin-4-ylmethyl)-2,3-dihydro-1H-indol-6-yl]-2-[(pyridin-4-ylmethyl)-amino]-nicotinamide]	< 0.05
CC(C)(C)c1ccc(NC(=O)c2cccnc2NCc2ccnc(Cl)c2)cc1 [Example 138, N-[4-(tert-Butyl)phenyl](2-{[(2-chloro(4-pyridyl))methyl]amino}(3-pyridyl))carboxamide]	< 0.05
